Laboratory results published in ChEMBL document CHEMBL3137667, “[Drug-induced liver injury; fourteenth updated edition of the bibliographic database of liver injuries and related drugs]” (Gastroenterol Clin Biol, 2004).

What was measured:
[1] = human
[2] = human; remark: listed apart in the source
[3] = Highest frequency of moderate liver toxicity observed during clinical trials, expressed as a percentage. [column '% BIOL' in source]; conditions: human
[4] = human, serum
[5] = human, serum; remark: listed apart in the source
[6] = human, serum, 4383 h
[7] = human; remark: listed apart in the source
[8] = human; remark: listed apart in the source
[9] = human; remark: listed apart in the source
[10] = human; remark: listed apart in the source
[11] = human; remark: listed apart in the source
[12] = Highest frequency of acute liver toxicity observed during clinical trials, expressed as a percentage. [column '% AIGUE' in source]; conditions: human
[13] = human; remark: listed apart in the source
[14] = human; remark: listed apart in the source
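Wherever Hepatotoxicity (association with vascular disease) is given: count of indexed literature references reporting vascular liver injury in humans, e.g. peliosis hepatitis, hepatic veno-occlusive disease or Budd-Chiari syndrome.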
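Wherever Hepatotoxicity (benign tumour) is given: value is a count of indexed literature references citing a benign tumour confirmed by histopathology.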
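Wherever Hepatotoxicity (choleostasis) is given: human cholestatic liver injury, shown by histopathology or by peak ALT or AST elevation over alkaline phosphatase ratio below 2, value counts indexed literature reports.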
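Wherever Hepatotoxicity (chronic liver disease) is given: chronic liver injury confirmed by histopathology or persistently raised serum aminotransferase activity beyond 6 months, value given as the count of indexed literature references.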
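Wherever Hepatotoxicity (cirrhosis) is given: value is a count of indexed literature references reporting cirrhosis confirmed by histopathology.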
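Wherever Hepatotoxicity (cytolytic) is given: human cytolytic liver injury, shown by histopathology or by a ratio above 5 of peak ALT or AST elevation to alkaline phosphatase elevation, value counts indexed references.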
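Wherever Hepatotoxicity (granulomatous hepatitis) is given: value is a count of indexed literature references reporting granulomatous liver disease confirmed by histopathology.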
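Wherever Hepatotoxicity (malignant tumour) is given: malignant tumour confirmed by histopathology, value gives the count of indexed literature references reporting it.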
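Wherever Hepatotoxicity (severe hepatitis) is given: human clinical data: severe hepatitis, meaning potentially life-threatening liver failure or clinically observed cases, the value counts how many indexed literature references report it.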
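Wherever Hepatotoxicity (steatosis) is given: steatosis confirmed by histopathology, value is the count of indexed references.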

## CN1CCN(c2c(F)cc3c(=O)c(C(=O)O)cn(CCF)c3c2F)CC1 [FLEROXACIN]
[1]
  Hepatotoxicity (severe hepatitis): 0
[2]
  Hepatotoxicity (benign tumour): 0
[3]
  Hepatotoxicity (moderate): 8.3%
[4]
  Hepatotoxicity (acute): 0
[5]
  Hepatotoxicity (moderate): 13
[6]
  Hepatotoxicity (chronic liver disease): 0
[7]
  Hepatotoxicity (steatosis): 0
[8]
  Hepatotoxicity (malignant tumour): 0
[9]
  Hepatotoxicity (granulomatous hepatitis): 0
[10]
  Hepatotoxicity (cirrhosis): 0
[11]
  Hepatotoxicity (association with vascular disease): 0
[12]
  Hepatotoxicity (acute): 0%
[13]
  Hepatotoxicity (cytolytic): 0
[14]
  Hepatotoxicity (choleostasis): 0

## CC(C)(CNC(N)=O)NCC(O)COC(=O)c1ccccc1F (centres undefined) [FLESTOLOL]
[1]
  Hepatotoxicity (severe hepatitis): 0
[2]
  Hepatotoxicity (benign tumour): 0
[3]
  Hepatotoxicity (moderate): 6.7%
[4]
  Hepatotoxicity (acute): 0
[5]
  Hepatotoxicity (moderate): 2
[6]
  Hepatotoxicity (chronic liver disease): 0
[7]
  Hepatotoxicity (steatosis): 0
[8]
  Hepatotoxicity (malignant tumour): 0
[9]
  Hepatotoxicity (granulomatous hepatitis): 0
[10]
  Hepatotoxicity (cirrhosis): 0
[11]
  Hepatotoxicity (association with vascular disease): 0
[12]
  Hepatotoxicity (acute): 0%
[13]
  Hepatotoxicity (cytolytic): 0
[14]
  Hepatotoxicity (choleostasis): 0

## COC(=O)Nc1nc2cc(C(=O)c3ccc(F)cc3)ccc2[nH]1 [FLUBENDAZOLE]
[1]
  Hepatotoxicity (severe hepatitis): 0
[2]
  Hepatotoxicity (benign tumour): 0
[3]
  Hepatotoxicity (moderate): 6%
[4]
  Hepatotoxicity (acute): 1
[5]
  Hepatotoxicity (moderate): 1
[6]
  Hepatotoxicity (chronic liver disease): 0
[7]
  Hepatotoxicity (steatosis): 0
[8]
  Hepatotoxicity (malignant tumour): 0
[9]
  Hepatotoxicity (granulomatous hepatitis): 0
[10]
  Hepatotoxicity (cirrhosis): 0
[11]
  Hepatotoxicity (association with vascular disease): 0
[12]
  Hepatotoxicity (acute): 0%
[13]
  Hepatotoxicity (cytolytic): 1
[14]
  Hepatotoxicity (choleostasis): 0

## O=C(O)c1ccccc1Nc1cccc(C(F)(F)F)c1 [FLUFENAMIC ACID]
[1]
  Hepatotoxicity (severe hepatitis): 0
[2]
  Hepatotoxicity (benign tumour): 0
[3]
  Hepatotoxicity (moderate): 0%
[4]
  Hepatotoxicity (acute): 0
[5]
  Hepatotoxicity (moderate): 1
[6]
  Hepatotoxicity (chronic liver disease): 0
[7]
  Hepatotoxicity (steatosis): 0
[8]
  Hepatotoxicity (malignant tumour): 0
[9]
  Hepatotoxicity (granulomatous hepatitis): 0
[10]
  Hepatotoxicity (cirrhosis): 0
[11]
  Hepatotoxicity (association with vascular disease): 0
[12]
  Hepatotoxicity (acute): 0%
[13]
  Hepatotoxicity (cytolytic): 0
[14]
  Hepatotoxicity (choleostasis): 0

## Fc1ccc(C(c2ccc(F)cc2)N2CCN(C/C=C/c3ccccc3)CC2)cc1 [FLUNARIZINE]
[1]
  Hepatotoxicity (severe hepatitis): 0
[2]
  Hepatotoxicity (benign tumour): 0
[3]
  Hepatotoxicity (moderate): 1.4%
[4]
  Hepatotoxicity (acute): 0
[5]
  Hepatotoxicity (moderate): 1
[6]
  Hepatotoxicity (chronic liver disease): 0
[7]
  Hepatotoxicity (steatosis): 0
[8]
  Hepatotoxicity (malignant tumour): 0
[9]
  Hepatotoxicity (granulomatous hepatitis): 0
[10]
  Hepatotoxicity (cirrhosis): 0
[11]
  Hepatotoxicity (association with vascular disease): 0
[12]
  Hepatotoxicity (acute): 0%
[13]
  Hepatotoxicity (cytolytic): 0
[14]
  Hepatotoxicity (choleostasis): 0

## C[C@H](C(=O)O)c1ccc2oc(-c3ccc(F)cc3)nc2c1 [FLUNOXAPROFEN]
[1]
  Hepatotoxicity (severe hepatitis): 0
[2]
  Hepatotoxicity (benign tumour): 0
[3]
  Hepatotoxicity (moderate): 0%
[4]
  Hepatotoxicity (acute): 0
[5]
  Hepatotoxicity (moderate): 2
[6]
  Hepatotoxicity (chronic liver disease): 0
[7]
  Hepatotoxicity (steatosis): 0
[8]
  Hepatotoxicity (malignant tumour): 0
[9]
  Hepatotoxicity (granulomatous hepatitis): 0
[10]
  Hepatotoxicity (cirrhosis): 0
[11]
  Hepatotoxicity (association with vascular disease): 0
[12]
  Hepatotoxicity (acute): 0%
[13]
  Hepatotoxicity (cytolytic): 0
[14]
  Hepatotoxicity (choleostasis): 0

## CN1CCN(C2=Nc3cc(F)ccc3Cc3ccccc32)CC1 [FLUPERLAPINE]
[1]
  Hepatotoxicity (severe hepatitis): 0
[2]
  Hepatotoxicity (benign tumour): 0
[3]
  Hepatotoxicity (moderate): 23%
[4]
  Hepatotoxicity (acute): 0
[5]
  Hepatotoxicity (moderate): 4
[6]
  Hepatotoxicity (chronic liver disease): 0
[7]
  Hepatotoxicity (steatosis): 0
[8]
  Hepatotoxicity (malignant tumour): 0
[9]
  Hepatotoxicity (granulomatous hepatitis): 0
[10]
  Hepatotoxicity (cirrhosis): 0
[11]
  Hepatotoxicity (association with vascular disease): 0
[12]
  Hepatotoxicity (acute): 0%
[13]
  Hepatotoxicity (cytolytic): 0
[14]
  Hepatotoxicity (choleostasis): 0

## CCOC(=O)Nc1ccc(NCc2ccc(F)cc2)nc1N [FLUPIRTINE]
[1]
  Hepatotoxicity (severe hepatitis): 0
[2]
  Hepatotoxicity (benign tumour): 0
[3]
  Hepatotoxicity (moderate): 10%
[4]
  Hepatotoxicity (acute): 0
[5]
  Hepatotoxicity (moderate): 2
[6]
  Hepatotoxicity (chronic liver disease): 0
[7]
  Hepatotoxicity (steatosis): 0
[8]
  Hepatotoxicity (malignant tumour): 0
[9]
  Hepatotoxicity (granulomatous hepatitis): 0
[10]
  Hepatotoxicity (cirrhosis): 0
[11]
  Hepatotoxicity (association with vascular disease): 0
[12]
  Hepatotoxicity (acute): 0%
[13]
  Hepatotoxicity (cytolytic): 0
[14]
  Hepatotoxicity (choleostasis): 0

## CC[C@H]1OC(=O)[C@H](C)[C@@H](O[C@H]2C[C@@](C)(OC)[C@@H](O)[C@H](C)O2)[C@H](C)[C@@H](O[C@@H]2O[C@H](C)C[C@H](N(C)C)[C@H]2O)[C@](C)(O)C[C@](C)(F)C(=O)[C@H](C)[C@@H](O)[C@]1(C)O [FLURITHROMYCIN]
[1]
  Hepatotoxicity (severe hepatitis): 0
[2]
  Hepatotoxicity (benign tumour): 0
[3]
  Hepatotoxicity (moderate): 3.6%
[4]
  Hepatotoxicity (acute): 0
[5]
  Hepatotoxicity (moderate): 1
[6]
  Hepatotoxicity (chronic liver disease): 0
[7]
  Hepatotoxicity (steatosis): 0
[8]
  Hepatotoxicity (malignant tumour): 0
[9]
  Hepatotoxicity (granulomatous hepatitis): 0
[10]
  Hepatotoxicity (cirrhosis): 0
[11]
  Hepatotoxicity (association with vascular disease): 0
[12]
  Hepatotoxicity (acute): 0%
[13]
  Hepatotoxicity (cytolytic): 0
[14]
  Hepatotoxicity (choleostasis): 0

## O=C(O)P(=O)(O)O [FOSCARNET]
[1]
  Hepatotoxicity (severe hepatitis): 0
[2]
  Hepatotoxicity (benign tumour): 0
[3]
  Hepatotoxicity (moderate): 12%
[4]
  Hepatotoxicity (acute): 0
[5]
  Hepatotoxicity (moderate): 2
[6]
  Hepatotoxicity (chronic liver disease): 0
[7]
  Hepatotoxicity (steatosis): 0
[8]
  Hepatotoxicity (malignant tumour): 0
[9]
  Hepatotoxicity (granulomatous hepatitis): 0
[10]
  Hepatotoxicity (cirrhosis): 0
[11]
  Hepatotoxicity (association with vascular disease): 0
[12]
  Hepatotoxicity (acute): 0%
[13]
  Hepatotoxicity (cytolytic): 0
[14]
  Hepatotoxicity (choleostasis): 0

## O=CN(O)CCCP(=O)(O)O [FOSMIDOMYCIN]
[1]
  Hepatotoxicity (severe hepatitis): 0
[2]
  Hepatotoxicity (benign tumour): 0
[3]
  Hepatotoxicity (moderate): 7.7%
[4]
  Hepatotoxicity (acute): 0
[5]
  Hepatotoxicity (moderate): 1
[6]
  Hepatotoxicity (chronic liver disease): 0
[7]
  Hepatotoxicity (steatosis): 0
[8]
  Hepatotoxicity (malignant tumour): 0
[9]
  Hepatotoxicity (granulomatous hepatitis): 0
[10]
  Hepatotoxicity (cirrhosis): 0
[11]
  Hepatotoxicity (association with vascular disease): 0
[12]
  Hepatotoxicity (acute): 0%
[13]
  Hepatotoxicity (cytolytic): 0
[14]
  Hepatotoxicity (choleostasis): 0

## CCOP(=O)(OCC)C(C)NC(=O)N(CCCl)N=O (centres undefined) [FOTEMUSTINE]
[1]
  Hepatotoxicity (severe hepatitis): 0
[2]
  Hepatotoxicity (benign tumour): 0
[3]
  Hepatotoxicity (moderate): 30.8%
[4]
  Hepatotoxicity (acute): 1
[5]
  Hepatotoxicity (moderate): 9
[6]
  Hepatotoxicity (chronic liver disease): 0
[7]
  Hepatotoxicity (steatosis): 0
[8]
  Hepatotoxicity (malignant tumour): 0
[9]
  Hepatotoxicity (granulomatous hepatitis): 0
[10]
  Hepatotoxicity (cirrhosis): 0
[11]
  Hepatotoxicity (association with vascular disease): 0
[12]
  Hepatotoxicity (acute): 0%
[13]
  Hepatotoxicity (cytolytic): 0
[14]
  Hepatotoxicity (choleostasis): 0

## CO[C@@H]1[C@H](OC(=O)/C=C/C=C/C=C/C=C/C(=O)O)CC[C@]2(CO2)[C@H]1[C@@]1(C)O[C@@H]1CC=C(C)C [FUMAGILLIN]
[1]
  Hepatotoxicity (severe hepatitis): 0
[2]
  Hepatotoxicity (benign tumour): 0
[3]
  Hepatotoxicity (moderate): 16.7%
[4]
  Hepatotoxicity (acute): 1
[5]
  Hepatotoxicity (moderate): 2
[6]
  Hepatotoxicity (chronic liver disease): 0
[7]
  Hepatotoxicity (steatosis): 0
[8]
  Hepatotoxicity (malignant tumour): 0
[9]
  Hepatotoxicity (granulomatous hepatitis): 0
[10]
  Hepatotoxicity (cirrhosis): 0
[11]
  Hepatotoxicity (association with vascular disease): 0
[12]
  Hepatotoxicity (acute): 3.4%
[13]
  Hepatotoxicity (cytolytic): 1
[14]
  Hepatotoxicity (choleostasis): 0

## COc1ccc(CCN(C)CCCC(C#N)(c2cc(OC)c(OC)c(OC)c2)C(C)C)cc1OC (centres undefined) [GALLOPAMIL]
[1]
  Hepatotoxicity (severe hepatitis): 0
[2]
  Hepatotoxicity (benign tumour): 0
[3]
  Hepatotoxicity (moderate): 4%
[4]
  Hepatotoxicity (acute): 0
[5]
  Hepatotoxicity (moderate): 1
[6]
  Hepatotoxicity (chronic liver disease): 0
[7]
  Hepatotoxicity (steatosis): 0
[8]
  Hepatotoxicity (malignant tumour): 0
[9]
  Hepatotoxicity (granulomatous hepatitis): 0
[10]
  Hepatotoxicity (cirrhosis): 0
[11]
  Hepatotoxicity (association with vascular disease): 0
[12]
  Hepatotoxicity (acute): 0%
[13]
  Hepatotoxicity (cytolytic): 0
[14]
  Hepatotoxicity (choleostasis): 0

## CC(C)=CCC/C(C)=C/CC/C(C)=C/CCC(=O)OC/C=C(\C)CCC=C(C)C [GEFARNATE]
[1]
  Hepatotoxicity (severe hepatitis): 0
[2]
  Hepatotoxicity (benign tumour): 0
[3]
  Hepatotoxicity (moderate): 1%
[4]
  Hepatotoxicity (acute): 0
[5]
  Hepatotoxicity (moderate): 1
[6]
  Hepatotoxicity (chronic liver disease): 0
[7]
  Hepatotoxicity (steatosis): 0
[8]
  Hepatotoxicity (malignant tumour): 0
[9]
  Hepatotoxicity (granulomatous hepatitis): 0
[10]
  Hepatotoxicity (cirrhosis): 0
[11]
  Hepatotoxicity (association with vascular disease): 0
[12]
  Hepatotoxicity (acute): 0%
[13]
  Hepatotoxicity (cytolytic): 0
[14]
  Hepatotoxicity (choleostasis): 0

## C[C@H]([C@](O)(Cn1cncn1)c1ccc(F)cc1F)S(C)(=O)=O [GENACONAZOLE]
[1]
  Hepatotoxicity (severe hepatitis): 0
[2]
  Hepatotoxicity (benign tumour): 0
[3]
  Hepatotoxicity (moderate): 33.3%
[4]
  Hepatotoxicity (acute): 0
[5]
  Hepatotoxicity (moderate): 1
[6]
  Hepatotoxicity (chronic liver disease): 0
[7]
  Hepatotoxicity (steatosis): 0
[8]
  Hepatotoxicity (malignant tumour): 0
[9]
  Hepatotoxicity (granulomatous hepatitis): 0
[10]
  Hepatotoxicity (cirrhosis): 0
[11]
  Hepatotoxicity (association with vascular disease): 0
[12]
  Hepatotoxicity (acute): 0%
[13]
  Hepatotoxicity (cytolytic): 0
[14]
  Hepatotoxicity (choleostasis): 0
